Measured values as given in patent publication US8716284B2, “Adamantyl diamide derivatives and uses of same” (H. Lundbeck A/S, priority 2008, dated 2014).

What follows are compounds tested against T1, rat metabotropic glutamate receptor 5 (mGluR5) (Rattus norvegicus, UniProt P31424) (assay: Calcium mobilization assay (FLIPR) for negative or positive allosteric activity, HEK 293 cells). Conditions: HEK293, negative allosteric modulation, inhibition of EC80 glutamate response; read-out: FLIPR maximum inhibition.
T1 construct: expressed in transfected cells; host or cells: HEK 293
T1 sequence (P31424 21-1171 isoform P31424-2 limits assumed): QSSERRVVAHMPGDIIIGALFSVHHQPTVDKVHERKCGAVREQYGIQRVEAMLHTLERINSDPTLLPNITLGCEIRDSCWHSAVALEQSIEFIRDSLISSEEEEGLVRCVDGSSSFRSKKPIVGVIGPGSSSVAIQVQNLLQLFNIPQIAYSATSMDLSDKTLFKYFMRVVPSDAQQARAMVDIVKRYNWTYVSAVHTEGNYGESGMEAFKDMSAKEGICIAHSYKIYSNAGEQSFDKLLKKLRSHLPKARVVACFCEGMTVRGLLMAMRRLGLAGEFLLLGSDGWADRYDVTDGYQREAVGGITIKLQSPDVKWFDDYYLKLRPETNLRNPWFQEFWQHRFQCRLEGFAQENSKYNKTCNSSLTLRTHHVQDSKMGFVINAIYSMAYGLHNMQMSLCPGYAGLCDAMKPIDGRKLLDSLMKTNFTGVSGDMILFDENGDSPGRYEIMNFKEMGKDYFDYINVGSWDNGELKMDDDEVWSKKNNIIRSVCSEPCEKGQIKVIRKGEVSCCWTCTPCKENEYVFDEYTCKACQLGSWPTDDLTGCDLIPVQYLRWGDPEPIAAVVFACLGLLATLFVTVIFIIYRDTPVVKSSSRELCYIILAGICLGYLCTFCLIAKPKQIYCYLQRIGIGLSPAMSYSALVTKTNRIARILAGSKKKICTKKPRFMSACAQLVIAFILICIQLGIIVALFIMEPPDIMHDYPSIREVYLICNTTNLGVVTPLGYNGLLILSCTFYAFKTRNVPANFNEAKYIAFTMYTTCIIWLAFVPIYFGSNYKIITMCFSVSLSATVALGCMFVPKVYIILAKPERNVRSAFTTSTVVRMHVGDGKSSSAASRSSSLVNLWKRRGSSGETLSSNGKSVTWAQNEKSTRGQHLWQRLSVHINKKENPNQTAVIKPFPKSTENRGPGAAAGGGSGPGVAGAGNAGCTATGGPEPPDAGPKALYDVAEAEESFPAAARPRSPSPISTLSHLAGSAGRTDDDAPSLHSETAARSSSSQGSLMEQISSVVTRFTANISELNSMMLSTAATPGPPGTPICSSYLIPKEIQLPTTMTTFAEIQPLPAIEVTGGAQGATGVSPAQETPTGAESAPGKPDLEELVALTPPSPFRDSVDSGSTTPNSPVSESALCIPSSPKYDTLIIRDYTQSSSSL
Format: cell-based
How it was run: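 HEK 293 cells stably expressing rat mGluR5, Fluo-4 loaded in HEPES-buffered HBSS pH 7.4 with 0.1% BSA and probenecid. Compound added with EC20 (potentiation) or EC80 (inhibition) glutamate; fluorescence read over 3 min at room temperature. Basal-subtracted maximum fluorescence change fitted to Hill equation.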
`CN(C)CCNc1cccc(C(=O)NC23CC4CC(CC(NC(=O)c5cccc(F)c5)(C4)C2)C3)n1` [Example 242, 6-(2-Dimethylamino-ethylamino)-pyridine-2-carboxylic acid [3-(3-fluoro-benzoylamino)-adamantan-1-yl]-amide] was tested, and the Emax was 63 to 99%.
In the case of `Cc1cccc(C(=O)NC23CC4CC(CC(NC(=O)c5ccc(F)cn5)(C4)C2)C3)n1` [Example 137, 5-Fluoro-pyridine-2-carboxylic acid {3-[(6-methyl-pyridine-2-carbonyl)-amino]-adamantan-1-yl}-amide], the Emax was 70 to 99%.
Work on `Cc1cncc(C(=O)NC23CC4CC(C2)CC(NC(=O)c2cc(C(F)(F)F)ccc2F)(C4)C3)n1` [Example 169, 6-Methyl-pyrazine-2-carboxylic acid [3-(2-fluoro-5-trifluoromethyl-benzoylamino)-adamantan-1-yl]-amide] yielded an Emax of 63 to 99%.
`O=C(NC12CC3CC(C1)CC(NC(=O)c1cn4ccccc4n1)(C3)C2)c1ccccn1` [Example 88, Imidazo[1,2-a]pyridine-2-carboxylic acid {3-[(pyridine-2-carbonyl)-amino]-adamantan-1-yl}-amide] gave an Emax of 63 to 99%.
For `COCCCNc1cccc(C(=O)NC23CC4CC(CC(NC(=O)c5ccccn5)(C4)C2)C3)n1` [Example 220, 6-(3-Methoxy-propylamino)-pyridine-2-carboxylic acid {3-[(pyridine-2-carbonyl)-amino]-adamantan-1-yl}-amide], the Emax was 63 to 99%.
`N#Cc1cccc(C(=O)NC23CC4CC(C2)CC(NC(=O)c2ccccn2)(C4)C3)c1` [Example 7, Pyridine-2-carboxylic acid[3-(3-cyano-benzoylamino)-adamantan-1-yl]-acid] was tested, and the Emax was 90 to 99%.
`COCCN(C)c1cccc(C(=O)NC23CC4CC(CC(NC(=O)c5cccc(C)n5)(C4)C2)C3)n1` [Example 207, 6-[(2-Methoxy-ethyl)-methyl-amino]-pyridine-2-carboxylic acid{3-[(6-methyl-pyridine-2-carbonyl)-amino]-adamantan-1-yl}-amide] gave an Emax of 63 to 99%.
`O=C(NC12CC3CC(C1)CC(NC(=O)c1ccncc1)(C3)C2)c1ccncc1` [Example 4, N,N′-(1,3-adamantylene)bis(4-pyridinecarboxamide)] showed an Emax of 90 to 99%.
`O=C(NC12CC3CC(C1)CC(NC(=O)c1cccc(NCCCO)n1)(C3)C2)c1cccc(F)c1` [Example 214, 6-(3-Hydroxy-propylamino)-pyridine-2-carboxylic acid [3-(3-fluoro-benzoylamino)-adamantan-1-yl]-amide] gave an Emax of 63 to 99%.
`O=C(NC12CC3CC(C1)CC(NC(=O)c1ccccn1)(C3)C2)c1ccn2ccnc2c1` [Example 87, Imidazo[1,2-a]pyridine-7-carboxylic acid {3-[(pyridine-2-carbonyl)-amino]-adamantan-1-yl}-amide] showed an Emax of 63 to 99%.
With `Cc1cccc(C(=O)NC23CC4CC(C2)CC(NC(=O)c2cccc(N(C)CCN(C)C)n2)(C4)C3)n1` [Example 204, 6-[(2-Dimethylamino-ethyl)-methyl-amino]-pyridine-2-carboxylic acid{3-[(6-methyl-pyridine-2-carbonyl)-amino]-adamantan-1-yl}-amide] the Emax was 63 to 99%.
`COc1cccc(C(=O)NC23CC4CC(C2)CC(NC(=O)c2ccccn2)(C4)C3)c1` [Example 80, Pyridine-2-carboxylic acid [3-(3-methoxy-benzoylamino)-adamantan-1-yl]-amide] gave an Emax of 63 to 99%.
With `Cc1cccc(C(=O)NC23CC4CC(CC(NC(=O)c5cc(O)ccn5)(C4)C2)C3)n1` [Example 132, 6-Methyl-pyridine-2-carboxylic acid {3-[(4-hydroxy-pyridine-2-carbonyl)-amino]-adamantan-1-yl}-amide] the Emax was 70 to 99%.
In the case of `Cc1cccc2nc(C(=O)NC34CC5CC(CC(NC(=O)c6cccc(F)c6)(C5)C3)C4)cn12` [Example 103, 5-Methyl-imidazo[1,2-a]pyridine-2-carboxylic acid [3-(3-fluoro-benzoylamino)-adamantan-1-yl]-amide], the Emax was 63 to 99%.
For `O=C(NC12CC3CC(C1)CC(NC(=O)c1onc4ccccc14)(C3)C2)c1ccccn1` [Example 62, Benzo[c]isoxazole-3-carboxylic acid {3-[(pyridine-2-carbonyl)-amino]-adamantan-1-yl}-amide], the Emax was 63 to 99%.
`Cc1cccc(C(=O)NC23CC4CC(CC(NC(=O)c5cc(C)on5)(C4)C2)C3)n1` [Example 39, 6-Methyl-pyridine-2-carboxylic acid {3-[(5-methyl-isoxazole-3-carbonyl)-amino]-adamantan-1-yl}-amide] was tested, and the Emax was 63 to 99%.
`O=C(NC12CC3CC(C1)CC(NC(=O)c1ccno1)(C3)C2)c1ccccn1` [Example 77, Pyridine-2-carboxylic acid {3-[(isoxazole-5-carbonyl)-amino]-adamantan-1-yl}-amide] showed an Emax of 63 to 99%.
`Cc1cncc(C(=O)NC23CC4CC(C2)CC(NC(=O)c2ccnc(C)n2)(C4)C3)n1` [Example 173, 2-Methyl-pyrimidine-4-carboxylic acid {3-[(6-methyl-pyrazine-2-carbonyl)-amino]-adamantan-1-yl}-amide] showed an Emax of 63 to 99%.
Compound `CC(=O)NCCNc1cccc(C(=O)NC23CC4CC(CC(NC(=O)c5cccc(F)c5)(C4)C2)C3)n1` [Example 244, 6-(2-Acetylamino-ethylamino)-pyridine-2-carboxylic acid [3-(3-fluoro-benzoylamino)-adamantan-1-yl]-amide] has an Emax of 63 to 99%.
With `O=C(NC12CC3CC(C1)CC(NC(=O)C1CCC1)(C3)C2)c1ccccn1` [Example 82, Pyridine-2-carboxylic acid [3-(cyclobutanecarbonyl-amino)-adamantan-1-yl]-amide] the Emax was 63 to 99%.
`CCOc1cccc(C(=O)NC23CC4CC(C2)CC(NC(=O)c2cncc(C)n2)(C4)C3)c1` [Example 147, 6-Methyl-pyrazine-2-carboxylic acid [3-(3-ethoxy-benzoylamino)-adamantan-1-yl]-amide] gave an Emax of 70 to 99%.
Compound `Cc1cccc(C(=O)NC23CC4CC(C2)CC(NC(=O)c2cccc(C(C)O)n2)(C4)C3)n1` (stereo not drawn) [Example 143, 6-Methyl-pyridine-2-carboxylic acid {3-[(6-(1-hydroxy-ethyl)-pyridine-2-carbonyl)-amino]-adamantan-1-yl}-amide] has an Emax of 70 to 99%.
`COc1cc(C(=O)NC23CC4CC(C2)CC(NC(=O)c2cncc(C)n2)(C4)C3)ccc1F` [Example 159, 6-Methyl-pyrazine-2-carboxylic acid [3-(4-fluoro-3-methoxy-benzoylamino)-adamantan-1-yl]-amide] gave an Emax of 70 to 99%.
Compound `Cc1cncc(C(=O)NC23CC4CC(CC(NC(=O)c5cc(Br)ccn5)(C4)C2)C3)n1` [Example 176, 6-Methyl-pyrazine-2-carboxylic acid {3-[(4-bromo-pyridine-2-carbonyl)-amino]-adamantan-1-yl}-amide] has an Emax of 63 to 99%.
`CN1CCN(c2cccc(C(=O)NC34CC5CC(CC(NC(=O)c6ccccn6)(C5)C3)C4)n2)CC1` [Example 198, 6-(4-Methyl-piperazin-1-yl)-pyridine-2-carboxylic acid {3-[(pyridine-2-carbonyl)-amino]-adamantan-1-yl}-amide] showed an Emax of 63 to 99%.
`Cc1cccc(C(=O)NC23CC4CC(C2)CC(NC(=O)c2ncccn2)(C4)C3)n1` [Example 121, Pyrimidine-2-carboxylic acid {3-[(6-methyl-pyridine-2-carbonyl)-amino]-adamantan-1-yl}-amide] was tested, and the Emax was 70 to 99%.
For `Cc1cncc(C(=O)NC23CC4CC(C2)CC(NC(=O)c2cc(Cl)ccc2F)(C4)C3)n1` [Example 161, 6-Methyl-pyrazine-2-carboxylic acid [3-(5-chloro-2-fluoro-benzoylamino)-adamantan-1-yl]-amide], the Emax was 70 to 99%.
`Cc1cccc(C(=O)NC23CC4CC(C2)CC(NC(=O)c2cccc(NCCC(N)=O)n2)(C4)C3)n1` [Example 240, 6-(2-Carbamoyl-ethylamino)-pyridine-2-carboxylic acid (3-[(6-methyl-pyridine-2-carbonyl)-amino]-adamantan-1-yl}-amide] showed an Emax of 63 to 99%.
With `COCCNc1cccc(C(=O)NC23CC4CC(CC(NC(=O)c5cccc(C)n5)(C4)C2)C3)n1` [Example 235] the Emax was 63 to 99%.
`O=C(NC12CC3CC(C1)CC(NC(=O)c1cccc(N4CCOCC4)n1)(C3)C2)c1cccc(F)c1` [Example 215, 6-Morpholin-4-yl-pyridine-2-carboxylic acid [3-(3-fluoro-benzoylamino)-adamantan-1-yl]-amide] showed an Emax of 63 to 99%.
In the case of `O=C(NC12CC3CC(C1)CC(NC(=O)c1cn4ccccc4n1)(C3)C2)c1cccc(F)c1` [Example 100, Imidazo[1,2-a]pyridine-2-carboxylic acid [3-(3-fluoro-benzoylamino)-adamantan-1-yl]-amide], the Emax was 63 to 99%.
`Cc1cccc(C(=O)NC23CC4CC(C2)CC(NC(=O)c2cccc(C)c2)(C4)C3)c1` [Example 16, N,N′-(1,3-adamantylene)bis(3-menthylbenzamide)] showed an Emax of 63 to 99%.
`COc1cccc(C(=O)NC23CC4CC(CC(NC(=O)c5cncc(C)n5)(C4)C2)C3)n1` [Example 151, 6-Methyl-pyrazine-2-carboxylic acid {3-[(6-methoxy-pyridine-2-carbonyl)-amino]-adamantan-1-yl}-amide] showed an Emax of 70 to 99%.
Compound `O=C(NC12CC3CC(C1)CC(NC(=O)c1ccccn1)(C3)C2)c1ccc2nccn2c1` [Example 89, Imidazo[1,2-a]pyridine-6-carboxylic acid {3-[(pyridine-2-carbonyl)-amino]-adamantan-1-yl}-amide] has an Emax of 63 to 99%.
`Cc1ccn2cc(C(=O)NC34CC5CC(CC(NC(=O)c6ccccn6)(C5)C3)C4)nc2c1` [Example 91, 7-Methyl-imidazo[1,2-a]pyridine-2-carboxylic acid {3-[(pyridine-2-carbonyl)-amino]-adamantan-1-yl}-amide] was tested, and the Emax was 63 to 99%.
Compound `COc1ccc(C(=O)NC23CC4CC(C2)CC(NC(=O)c2ccccn2)(C4)C3)cc1` [Example 81, Pyridine-2-carboxylic acid [3-(4-methoxy-benzoylamino)-adamantan-1-yl]-amide] has an Emax of 63 to 99%.
